Structures are written as SMILES.

This is an account of results in patent US20150044296A1, “COMBINATION THERAPY TO IMPROVE JOINT, TENDON, AND LIGAMENT HEALING” (priority 2012, published 2015).

In this assay the test system is trephine defect (bony healing). Description: Bony healing of trephine defect after systemic treatment. As to conditions: systemic administration. It counts as in vivo, mice.

With `c1cc(CN2CCCNCCNCCCNCC2)ccc1CN1CCCNCCNCCCNCC1` [AMD3100], the “bony ingrowth / bony regeneration” value is on record as 59.7%.

As for `CC[C@H](C)[C@H](NC(=O)[C@H](CCC(=O)O)NC(=O)[C@H](CO)NC(=O)[C@@H](NC(=O)[C@@H](N)CO)C(C)C)C(=O)N[C@@H](CCC(N)=O)C(=O)N[C@@H](CC(C)C)C(=O)N[C@@H](CCSC)C(=O)N[C@@H](Cc1cnc[nH]1)C(=O)N[C@@H](CC(N)=O)C(=O)N[C@@H](CC(C)C)C(=O)NCC(=O)N[C@@H](CCCCN)C(=O)N[C@@H](Cc1cnc[nH]1)C(=O)N[C@@H](CC(C)C)C(=O)N[C@@H](CC(N)=O)C(=O)N[C@@H](CO)C(=O)N[C@@H](CCSC)C(=O)N[C@@H](CCC(=O)O)C(=O)N[C@@H](CCCN=C(N)N)C(=O)N[C@H](C(=O)N[C@@H](CCC(=O)O)C(=O)N[C@@H](Cc1c[nH]c2ccccc12)C(=O)N[C@@H](CC(C)C)C(=O)N[C@@H](CCCN=C(N)N)C(=O)N[C@@H](CCCCN)C(=O)N[C@@H](CCCCN)C(=O)N[C@@H](CC(C)C)C(=O)N[C@@H](CCC(N)=O)C(=O)N[C@@H](CC(=O)O)C(=O)N[C@H](C(=O)N[C@@H](Cc1cnc[nH]1)C(=O)N[C@@H](CC(N)=O)C(=O)N[C@@H](Cc1ccccc1)C(=O)O)C(C)C)C(C)C` [PTH], the “bony ingrowth / bony regeneration” value is recorded as 56%.
